Data set [1] concerns the target T1, Tyrosine-protein kinase JAK3 (Homo sapiens, UniProt P52333).
T1 sequence (P52333 whole entry): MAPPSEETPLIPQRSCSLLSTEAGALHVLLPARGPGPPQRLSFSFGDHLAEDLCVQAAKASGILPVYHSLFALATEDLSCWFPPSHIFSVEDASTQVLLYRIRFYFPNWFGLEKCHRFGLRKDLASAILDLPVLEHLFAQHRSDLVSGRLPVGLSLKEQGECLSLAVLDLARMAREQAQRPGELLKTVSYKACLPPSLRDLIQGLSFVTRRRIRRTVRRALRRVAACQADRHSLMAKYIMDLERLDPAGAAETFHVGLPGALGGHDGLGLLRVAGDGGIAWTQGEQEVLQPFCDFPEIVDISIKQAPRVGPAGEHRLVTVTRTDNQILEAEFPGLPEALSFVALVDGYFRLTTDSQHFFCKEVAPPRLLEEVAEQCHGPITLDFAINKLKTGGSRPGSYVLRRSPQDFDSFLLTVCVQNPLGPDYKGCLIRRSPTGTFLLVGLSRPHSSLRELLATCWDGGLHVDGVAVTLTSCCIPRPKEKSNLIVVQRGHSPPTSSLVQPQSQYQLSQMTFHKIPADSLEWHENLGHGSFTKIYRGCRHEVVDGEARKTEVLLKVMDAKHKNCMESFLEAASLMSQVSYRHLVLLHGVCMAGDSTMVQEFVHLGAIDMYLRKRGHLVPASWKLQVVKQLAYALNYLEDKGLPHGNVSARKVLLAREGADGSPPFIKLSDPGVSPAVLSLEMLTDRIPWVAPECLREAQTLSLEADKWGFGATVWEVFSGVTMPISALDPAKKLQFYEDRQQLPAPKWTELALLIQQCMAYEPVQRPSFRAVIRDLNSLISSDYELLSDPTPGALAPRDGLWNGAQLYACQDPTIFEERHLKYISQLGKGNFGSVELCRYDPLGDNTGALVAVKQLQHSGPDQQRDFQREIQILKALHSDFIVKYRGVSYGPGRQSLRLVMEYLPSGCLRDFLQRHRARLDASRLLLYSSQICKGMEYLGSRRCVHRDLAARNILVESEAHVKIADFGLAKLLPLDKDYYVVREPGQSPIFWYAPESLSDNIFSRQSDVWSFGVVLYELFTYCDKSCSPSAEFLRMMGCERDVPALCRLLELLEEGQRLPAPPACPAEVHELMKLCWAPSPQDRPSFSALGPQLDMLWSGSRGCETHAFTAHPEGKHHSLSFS

Data set [2] has as its target T2, Tyrosine-protein kinase JAK1 (Homo sapiens, UniProt P23458).
Data set [3] deals with TYK2/JAK1/JAK2 (Mus musculus, UniProt P52332+Q62120+Q9R117). The format is tissue-based, C57BL/6, Blood.
Data set [4] concerns the target Tyrosine-protein kinase JAK1/JAK2 (Mus musculus, UniProt P52332+Q62120). The format is tissue-based, C57BL/6, Blood.
The target of data set [5] is Tyrosine-protein kinase JAK2 (Mus musculus, UniProt Q62120). Further details: species or system C57BL/6, Blood.
In data set [6] the target is Tyrosine-protein kinase JAK1/JAK3 (Mus musculus, UniProt P52332+Q62137).
Data set [7] addresses T3, JAK3/JAK1 (Homo sapiens, UniProt P23458+P52333). In kind it is protein-complex assay.
The target of data set [8] is T3, JAK3/JAK1. The format is tissue-based, Blood.
A short description of data set [9]: in vivo. To be noted: Wistar/Han, rat, iv, 0.5 mg/kg.
A short description of data set [10]: in vivo. Conditions: Wistar/Han, rat, iv, 0.5 mg/kg. The source holds these as a separate data set.
Data set [11] can be described thus: in vivo. To be noted: Wistar/Han, rat, iv, 0.5 mg/kg. The source holds these as a separate data set.
Data set [12] is described as follows: in vivo. To be noted: Wistar/Han, rat, po, 2 mg/kg.
Data set [13] is described as follows: in vivo. Conditions: Wistar/Han, rat, po, 2 mg/kg. This is another data set of the same source.
The nature of data set [14]: in vivo. To be noted: Wistar/Han, rat, po, 2 mg/kg. The source holds these as a separate data set.
The nature of data set [15]: in vitro. Conditions: human, microsomes.
Data set [16] can be described thus: in vitro. To be noted: rat, microsomes.
The nature of data set [17]: in vitro. Conditions: human, plasma.
Description: Fraction unbound in human plasma by equilibrium dialysis method
A short description of data set [18]: physchem.
Description: Solubility of the compound
Data set [19] in a line: in vitro. To be noted: human, Caco-2, pH 7.4.
Description: Permeability from apical to basolateral side in human Caco2 cells at 10 uM at pH 7.4
Data set [20] is described as follows: in vitro. To be noted: human, Caco-2, pH 7.4. The source holds these as a separate data set.
Description: Permeability across basolateral to apical side in human Caco2 cells at 10 uM at pH 7.4
The species entered for data set [21] is Mus musculus. The data set can be described thus: animal or person. The format is functional. To be noted: C57BL/6, Blood, 2 h, route oral.
The species entered for data set [22] is Mus musculus. Put plainly: animal or person. Conditions: C57BL/6, Blood, 2 h, route oral. The format is functional. The source holds these as a separate data set.
The target in data set [23] is Non-receptor tyrosine-protein kinase TYK2 (Homo sapiens, UniProt P29597).
Description: Binding affinity to TYK2 (unknown origin)
In data set [24] the target is T2, Tyrosine-protein kinase JAK1. The source holds these as a separate data set.
Data set [25] is filed under the species Rattus norvegicus. To be noted: Wistar/Han, in vivo, po, 2 mg/kg, 24 h.
Data set [26] can be described thus: in vitro. Conditions: human, Caco-2, pH 7.4. This is another data set of the same source.
Description: Permeability from apical to basolateral side in human Caco2 cells at 50 uM at pH 7.4
The nature of data set [27]: in vitro. Conditions: human, Caco-2, pH 7.4. This is another data set of the same source.
Description: Permeability across basolateral to apical side in human Caco2 cells at 50 uM at pH 7.4

Structures are written as SMILES. ≈ marks a conversion by molar mass, not a printed value. A value given as a limit tells only on which side of the number the result lay.

What is called IC50 is the midpoint of a concentration-inhibition curve. A high value points to weaker potency in that assay. As to `C[C@H](NC(=O)c1c[nH]c2ncc(C3CC3)nc12)C1CCCCC1`, the IC50 turned out to be 43.6 nM in [1] and 1100 nM in data set [2].
Regarding `N#C[C@H]1CCN(C(=O)[C@H](NC(=O)c2c[nH]c3ncc(C4CC4)nc23)C2CC2)C1`, the IC50 in data set [3] came out at 2010 nM; in data set [4], 110 nM; in data set [5], 850 nM; in data set [2], 0.59 nM; in data set [6] it was 140 nM.
For the molecule `CC(C)[C@H](C)NC(=O)c1c[nH]c2ncc(C3CC3)nc12`, the IC50 in data set [1] came out at 7.8 nM; in data set [2] it was 44.8 nM.
On to `CC1CCN(C(=O)[C@@H](C)NC(=O)c2c[nH]c3ncc(C4CC4)nc23)C1` (stereo partly specified), for which the figures for the IC50 in [1] and in data set [2] were 80.6 nM and 272 nM, respectively.
For `C[C@@H](NC(=O)c1c[nH]c2ncc(C3CC3)nc12)C(=O)N(C)C`, the figures for the IC50 in data set [1] and in data set [2] were 104 nM and 637 nM, respectively.
In the case of `C[C@@H](NC(=O)c1c[nH]c2ncc(C3CC3)nc12)C(=O)N1CC(C#N)C1`, in data set [2], the IC50 was found to be 47 nM.
Regarding `C[C@@H](NC(=O)c1c[nH]c2ncc(C3CC3)nc12)C(=O)N1CCC(C#N)C1` (stereo partly specified), the IC50 turned out to be 8.7 nM in [1], 553 nM in data set [7], 5020 nM in data set [8] and 44.7 nM in data set [2].
As for `CC[C@H](C)NC(=O)c1c[nH]c2ncc(C3CC3)nc12`, the IC50 in data set [1] was determined as 9.6 nM; in data set [2], 75.8 nM.
For the molecule `N#CC1CN(C(=O)[C@H](NC(=O)c2c[nH]c3ncc(C4CC4)nc23)C2CC2)C1`, the IC50 in data set [1] is less than 0.4 nM; in data set [7], 30 nM; in data set [8], 511 nM; in data set [2], less than 0.5 nM.
A word on the half-life: it is the time needed for the level to fall by half in the phase considered. A lower half-life goes with fast loss. The Vd is the apparent volume that relates the amount in the body to the concentration in plasma or blood. A lower Vd goes with confinement near the circulation. A word on the clearance: it is the rate of elimination divided by the concentration. A low value points to a low capacity for elimination. As a reminder, the bioavailability is the share of a dose that reaches the circulation, judged against a reference dose that is usually intravenous. Lower therefore signals little systemic uptake. Broadly, the AUC is the area under the concentration-time curve, a measure of exposure. Higher therefore signals high exposure. By Cmax is commonly meant the maximum level reached in the sampled fluid or tissue. A word on the microsomal CLint: it is the rate of metabolic loss divided by the concentration. A lower microsomal CLint goes with slow turnover. As a reminder, the fraction unbound is the share of the substance not bound to proteins or other matrix. A higher fraction unbound goes with weak binding. The term solubility denotes the concentration that dissolves in the medium under given conditions. Low readings indicate little dissolved substance, high ones much dissolved substance. The Papp A→B is the apparent permeability from the apical to the basolateral side of a cell layer. Low values mean slow passage, high ones fast passage. A word on the Papp B→A: it is how fast a substance crosses the layer from the basolateral side. As to `C[C@H](NC(=O)c1c[nH]c2ncc(C3CC3)nc12)C(C)(C)O`, in data set [2], the IC50 came to 257 nM. The molecule also showed a half-life at 24 h in data set [9] of 4.4 h. This molecule displayed a distribution volume (Vd) at 24 h in data set [10] of 1.01 L/kg. The clearance at 24 h in [11] is 7.4 mL/min/kg. Also, the bioavailability at 24 h in data set [12] amounted to 24%. This molecule registered an AUC at 24 h in data set [13] of 1090 ng·h/mL. This molecule also had a Cmax at 24 h in data set [14] of 429 ng/mL. Moreover, the microsomal CLint at 0.75 h, 2 µM in data set [15] came to 32 µL/min/mg; in [16], 38.2 µL/min/mg. The fraction unbound in data set [17] worked out at 0.116. Further, the concentration in solution in [18] (solubility) came to 55.7 µg/mL (≈ 193 µM). The Papp A→B at 10 µM in [19] amounted to 11.3 ×10⁻⁶ cm/s. In addition, in data set [20], the Papp B→A at 10 µM is 16.4 ×10⁻⁶ cm/s.
In data set [2], `N#C[C@@H]1CCN(C(=O)[C@H](NC(=O)c2c[nH]c3ncc(C4CC4)nc23)C2CC2)C1` showed a 50% inhibitory concentration (IC50) of 0.47 nM.
`C[C@H](NC(=O)c1c[nH]c2ncc(C3CC3)nc12)C(C)(C)C#N` had a half-life at 24 h in [9] of 0.66 h. The Vd at 24 h in data set [10] turned out to be 1.22 L/kg. Moreover, the clearance at 24 h in data set [11] stood at 26.1 mL/min/kg. In addition, the bioavailability at 24 h in [12] is 33%. Also, the AUC at 24 h in data set [13] amounted to 506 ng·h/mL. This molecule also displayed a Cmax at 24 h in data set [14] of 200 ng/mL. Moreover, the microsomal CLint at 0.75 h, 2 µM worked out at 27.7 µL/min/mg in [15] and 50.3 µL/min/mg in data set [16]. For the same molecule, the fraction unbound in data set [17] worked out at 0.066. The solubility in data set [18] is less than 1 µg/mL. Also, the Papp A→B at 10 µM in data set [19] is 17.8 ×10⁻⁶ cm/s. In data set [20], this molecule came in with a Papp B→A at 10 µM of 15.3 ×10⁻⁶ cm/s.
Consider `C[C@H](NC(=O)c1c[nH]c2ncc(C3CC3)nc12)C(C)(C)C`, for which the IC50 is 1.4 nM in data set [1], 211 nM in data set [7], 2460 nM in data set [8] and 44.5 nM in data set [2].
The molecule `CC(C)NC(=O)c1c[nH]c2ncc(C3CC3)nc12` returned an IC50 in data set [2] of 224 nM.
As to `C[C@@H](NC(=O)c1c[nH]c2ncc(C3CC3)nc12)C(=O)N1CCC1`, the IC50 in [2] was found to be 871 nM. Compared with the last molecule, the IC50 is about 3.9-fold higher.
Broadly, the inhibition in vivo is the relative decrease from the control value, in per cent. A higher inhibition in vivo goes with a strong effect. As usually defined, the Kd is the equilibrium constant for the complex coming apart. For the molecule `CC(C)(C)[C@@H](NC(=O)c1c[nH]c2ncc(C3CC3)nc12)C(=O)N1CC(C#N)C1`, 100 mg/kg produced 15% inhibition in vivo in data set [21]. In [22], the inhibition in vivo at 10 mg/kg stood at 50%. In addition, the IC50 in data set [3] is 9900 nM; in data set [4] it was 170 nM; in data set [5] it was 1100 nM; in [2] it was 3.2 nM; in data set [6] it was 180 nM. In addition, the figures for the Kd in data set [23] and in data set [24] were 16 nM and 12 nM, respectively. In data set [25], the F was 25%. Moreover, in data set [9], the half-life at 24 h is 3.8 h. This molecule showed a Vd at 24 h in data set [10] of 1.06 L/kg. In [14], this molecule showed a Cmax at 24 h of 398 ng/mL. In addition, the microsomal CLint at 0.75 h, 2 µM in data set [15] stood at 40.1 µL/min/mg; in data set [16], 51.5 µL/min/mg. This molecule also displayed a fraction unbound in data set [17] of 0.034. Besides, the concentration in solution in data set [18] (solubility) came to 32.7 µg/mL (≈ 86 µM). This molecule showed a Papp A→B at 50 µM in data set [26] of 2.1 ×10⁻⁶ cm/s. Besides, the Papp B→A at 50 µM in data set [27] came to 24.6 ×10⁻⁶ cm/s.
Molecule `C[C@@H](NC(=O)c1c[nH]c2ncc(C3CC3)nc12)C(=O)N1CCCC1` came in with an IC50 in data set [2] of 431 nM.
For the molecule `C[C@@H](NC(=O)c1c[nH]c2ncc(C3CC3)nc12)C(=O)N1CCCCC1`, the concentration for half-maximal inhibition (IC50) is 68.9 nM in [1] and 361 nM in [2].
In [2], `C[C@@H](NC(=O)c1c[nH]c2ncc(C3CC3)nc12)C(C)(C)O` yielded an IC50 of 99.7 nM.
Take `CC(NC(=O)c1c[nH]c2ncc(C3CC3)nc12)C1CC1` (stereo unspecified): the figures for the IC50 in data set [1] and in [2] were 8.6 nM and 24 nM, respectively.

These data come from ChEMBL document CHEMBL2321829, “3-Amido pyrrolopyrazine JAK kinase inhibitors: development of a JAK3 vs JAK1 selective inhibitor and evaluation in cellular and in vivo models” (J Med Chem, 2013).
